# Measurements taken from the supplement of paper PMC10307832.
# What was measured:
# Experiment in all cases: relative viability (nuclei count vs DMSO), 5 days (fraction); higher = more cells survive
# [1] = compound: C1=CC=C2C(=C1)C=CC(=C2SSC3=C(C=CC4=CC=CC=C43)O)O [IPA-3] + Nc1nc2[nH]cc(CCc3ccc(C(=O)N[C@@H](CCC(=O)O)C(=O)O)cc3)c2c(=O)[nH]1 [Pemetrexed] (partner 0.2 µM)
# In short: (§1)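 One day after seeding in 1536-well plates, lung cancer cell lines were dosed by pin tool. Dosing was either single-drug or a fixed anchor-drug dose plus five library-drug doses (not always all listed) in √10 steps. After 5 days, nuclei were stained in one fix-and-stain step and counted on 4× images, and relative viability is the nuclei count of treated wells over that of vehicle wells, given as the median of duplicate plates.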
# [2] = compound: Cn1c(Nc2ccc(C(F)(F)F)cc2)nc2cc(Oc3ccnc(-c4ncc(C(F)(F)F)[nH]4)c3)ccc21 [RAF265] + Cc1nc(NC(=O)N2CCC[C@H]2C(N)=O)sc1-c1ccnc(C(C)(C)C(F)(F)F)c1 [Alpelisib] (partner 2 µM)
# In short: as §1
# [3] = compound: Cc1ccc(-n2nc(C(C)(C)C)cc2NC(=O)Nc2ccc(OCCN3CCOCC3)c3ccccc23)cc1 [Doramapimod] + COc1cc2c(Oc3ccc(NC(=O)C4(C(=O)Nc5ccc(F)cc5)CC4)cc3F)ccnc2cc1OCCCN1CCOCC1 [Foretinib] (partner 0.25 µM)
# In short: as §1
# [4] = compound: Cc1ccc(-n2nc(C(C)(C)C)cc2NC(=O)Nc2ccc(OCCN3CCOCC3)c3ccccc23)cc1 [Doramapimod] + CS(=O)(=O)N1CCN(Cc2cc3nc(-c4cccc5[nH]ncc45)nc(N4CCOCC4)c3s2)CC1 [Pictilisib] (partner 1 µM)
# In short: as §1
Cell Line,relative viability ([1]; first compound 0.2 µM),relative viability ([1]; first compound 0.6325 µM),relative viability ([1]; first compound 2 µM),relative viability ([1]; first compound 6.325 µM),relative viability ([1]; first compound 20 µM),relative viability ([2]; first compound 0.01 µM),relative viability ([2]; first compound 0.03162 µM),relative viability ([2]; first compound 0.1 µM),relative viability ([2]; first compound 0.3162 µM),relative viability ([2]; first compound 1 µM),relative viability ([3]; first compound 0.02 µM),relative viability ([3]; first compound 0.06325 µM),relative viability ([3]; first compound 0.2 µM),relative viability ([3]; first compound 0.6325 µM),relative viability ([3]; first compound 2 µM),relative viability ([4]; first compound 0.02 µM),relative viability ([4]; first compound 0.06325 µM),relative viability ([4]; first compound 0.2 µM),relative viability ([4]; first compound 0.6325 µM),relative viability ([4]; first compound 2 µM)
LU99A,0.188,0.189,0.143,0.187,0.175,0.474,0.384,0.347,0.252,0.21,0.791,0.781,0.914,0.801,0.724,0.348,0.303,0.311,0.307,0.263
LXF-289,0.949,0.786,0.963,0.996,0.925,1.06,0.965,1,0.79,0.75,0.955,1.04,0.999,0.955,0.928,0.776,0.76,0.695,0.716,0.662
NCI-H23,0.694,0.628,0.764,0.644,0.68,0.738,0.601,0.643,0.416,0.222,0.952,1.05,0.947,1.05,0.95,0.435,0.438,0.374,0.509,0.484
NCI-H322M,0.594,0.624,0.681,0.669,0.573,0.811,0.784,0.544,0.28,0.265,1.11,0.913,1.08,1.05,1.05,0.902,0.501,0.577,0.585,0.479
NCI-H358,0.168,0.172,0.159,0.162,0.158,0.984,0.6,0.477,0.382,0.282,0.579,0.563,0.682,0.826,0.63,0.388,0.329,0.373,0.373,0.321
NCI-H441,0.258,0.262,0.27,0.236,0.236,0.793,–,0.429,0.392,0.311,1.02,0.654,0.909,–,0.842,0.451,0.323,0.417,0.44,0.394
NCI-H460,0.0552,0.0621,0.0636,0.0626,0.0707,0.543,0.356,0.481,–,0.173,1.08,1.04,1.02,1.17,0.973,0.374,0.383,0.266,0.548,0.291
NCI-H520,0.75,0.664,–,0.64,0.755,0.819,0.754,0.889,0.916,0.534,0.63,0.864,0.656,0.674,0.498,0.238,0.278,0.252,0.288,0.22
NCI-H596,0.592,0.497,0.469,0.552,0.435,0.561,0.444,0.495,0.513,0.359,0.907,0.766,1.01,0.782,0.855,0.417,0.381,0.407,0.429,0.355
NCI-H647,0.164,0.162,0.209,0.134,0.089,0.923,0.933,0.594,0.477,0.585,0.903,1.07,1.25,1.29,1.16,0.434,0.509,0.428,0.664,0.406
NCI-H650,1.22,0.873,1.03,0.852,1.15,1.35,1.17,1.21,0.852,0.398,1.07,1.12,1.18,1.08,1.03,0.887,0.818,0.984,0.982,0.859
NCI-H661,0.934,0.962,0.877,0.911,0.907,0.865,0.586,0.563,0.47,0.241,1.05,1,1.02,1.04,0.989,0.483,0.405,0.381,0.452,0.377
NCI-H838,0.266,0.236,0.258,0.271,0.322,1.03,0.974,1.01,1.06,0.692,1.01,0.993,1.08,1.21,1.01,0.415,0.485,0.439,0.552,0.467
NCI-H1355,1.13,1.08,1,1.06,0.945,0.829,0.791,0.794,0.427,0.229,0.95,0.986,0.922,0.972,0.939,0.438,0.356,0.386,0.366,0.332
NCI-H1395,0.925,0.842,0.822,0.887,0.912,1.07,0.993,1.04,0.835,0.792,0.948,0.925,0.991,0.991,0.933,0.567,0.599,0.601,0.624,0.545
NCI-H1437,0.298,0.294,0.32,0.323,0.334,0.956,1.02,0.973,0.944,0.778,1.37,1.39,1.35,1.38,1.2,0.453,0.411,0.37,0.596,0.415
NCI-H1563,0.807,0.797,0.792,1,0.864,0.977,0.999,0.973,0.898,0.985,0.847,1,0.962,0.966,1.08,0.677,0.633,0.634,0.724,0.645
NCI-H1651,0.602,0.606,0.621,0.591,0.679,0.95,0.919,1.03,0.734,0.774,0.912,0.777,0.841,0.793,0.869,0.605,0.478,0.551,0.695,0.519
NCI-H1666,0.842,0.853,0.874,0.796,0.83,1.1,1.11,0.942,0.815,0.547,0.948,1.05,1.02,1.08,0.971,0.502,0.397,0.37,0.369,0.312
NCI-H1734,0.412,0.46,0.436,0.365,0.383,0.668,0.529,0.589,0.532,0.333,0.808,0.805,0.802,0.767,0.598,0.418,0.356,0.352,0.466,0.325
NCI-H1755,0.621,0.44,0.495,0.399,0.398,0.966,0.864,0.779,0.486,0.408,0.984,0.928,0.93,0.892,0.866,0.364,0.382,0.455,0.447,0.393
NCI-H1793,1.33,0.736,0.927,0.923,0.632,0.709,0.914,0.66,0.477,0.293,0.618,0.752,0.822,0.865,0.597,0.392,0.324,0.245,0.336,0.252
NCI-H1915,0.559,0.463,0.497,0.461,0.633,1.07,0.945,0.908,0.543,0.296,1.02,1.13,1.18,1.12,0.995,0.945,0.932,0.989,0.87,0.785
NCI-H1944,0.687,0.549,0.551,0.721,0.577,0.896,0.841,0.646,0.496,0.442,0.782,0.918,0.883,0.957,0.715,0.319,0.378,0.339,0.372,0.322
NCI-H1975,0.318,0.288,0.305,0.347,0.274,0.589,0.427,0.306,0.234,0.173,0.961,0.965,0.952,0.988,0.924,0.324,0.32,0.315,0.373,0.294
NCI-H1993,0.652,0.602,0.57,0.531,0.516,0.648,0.648,0.77,0.761,0.715,0.844,0.759,0.808,0.778,0.68,0.85,0.97,0.825,0.728,0.906
NCI-H2009,1.16,0.974,1.03,0.958,1.09,1.21,1.11,1.03,1.05,0.594,1.21,1.25,1.21,1.36,1.2,0.812,0.656,0.826,0.395,0.823
